Measurements from publication PMC7584160 (Environmental Health Perspectives, 2020).
Like-named read-outs stand apart in the source and are kept apart here.

How the values were obtained:
[1] = tested on: GH3 cells; test: GH3 cell proliferation assay in the presence of 10 nM T3; type: cell-based, rat
[2] = molecular target: T1, human thyroxine-binding globulin (TBG) (Homo sapiens, UniProt P05543); test: TBG fluorescence polarization competitive binding assay (F-T4 probe); conditions: 100 nM TBG, 50 nM F-T4; up to 50 μM competitor
T1 construct: purchased Calbiochem 612075
T1 sequence (P05543 21-415): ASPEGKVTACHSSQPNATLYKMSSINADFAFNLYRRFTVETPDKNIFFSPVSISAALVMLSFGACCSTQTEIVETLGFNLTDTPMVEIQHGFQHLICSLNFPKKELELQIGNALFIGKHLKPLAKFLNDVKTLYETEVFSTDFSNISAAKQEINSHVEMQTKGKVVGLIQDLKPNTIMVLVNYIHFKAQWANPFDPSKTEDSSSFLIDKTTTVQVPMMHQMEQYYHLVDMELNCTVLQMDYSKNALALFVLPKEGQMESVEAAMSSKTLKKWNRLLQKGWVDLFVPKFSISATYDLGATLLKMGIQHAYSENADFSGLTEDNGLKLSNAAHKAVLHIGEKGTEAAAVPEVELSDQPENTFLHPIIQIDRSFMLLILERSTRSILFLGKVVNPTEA

[3] = molecular target: T2, human TRα-LBD (Homo sapiens, UniProt P10827); test: TRα-LBD fluorescence polarization competitive binding assay (F-T3 probe)
T2 sequence (P10827 163-410 isoform P10827-2 limits assumed): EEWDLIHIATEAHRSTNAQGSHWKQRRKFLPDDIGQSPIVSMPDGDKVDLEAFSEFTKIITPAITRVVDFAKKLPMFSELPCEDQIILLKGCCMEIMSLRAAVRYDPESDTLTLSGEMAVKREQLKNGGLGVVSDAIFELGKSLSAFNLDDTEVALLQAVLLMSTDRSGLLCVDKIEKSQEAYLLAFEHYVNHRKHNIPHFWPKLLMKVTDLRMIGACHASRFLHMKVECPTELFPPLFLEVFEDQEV

[4] = molecular target: T3, human TRβ-LBD (Homo sapiens, UniProt P10828); test: TRβ-LBD fluorescence polarization competitive binding assay (F-T3 probe)
T3 construct: purchased Zhongding Biotechnology Co. Ltd
T3 sequence (P10828 217-461 limits assumed): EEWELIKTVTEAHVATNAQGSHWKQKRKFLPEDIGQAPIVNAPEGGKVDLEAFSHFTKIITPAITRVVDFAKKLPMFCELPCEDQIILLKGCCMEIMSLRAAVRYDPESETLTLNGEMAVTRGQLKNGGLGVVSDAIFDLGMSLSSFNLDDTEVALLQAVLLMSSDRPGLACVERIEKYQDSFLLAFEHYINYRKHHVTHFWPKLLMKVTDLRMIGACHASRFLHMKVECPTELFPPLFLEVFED

[5] = tested on: GH3 cells; test: GH3 cell proliferation assay (individual exposure, with or without amiodarone); type: cell-based, rat; conditions: 96 h; for LOEC for GH3 cell proliferation: individual exposure
[6] = molecular target: T4, human transthyretin (TTR) (Homo sapiens, UniProt P02766); test: TTR fluorescence polarization competitive binding assay (F-T4 probe); conditions: for TTR RBP (relative binding potency): IC50 of TBBPA divided by that of competitor, TBBPA set as 1.00
T4 construct: purchased Calbiochem 529577

[7] = IC20 of TBBPA divided by that of competitor, TBBPA set as 1.00
[8] = […] nM TRα-LBD, 50 nM F-T3, pH 7.5, 25°C, linear interpolation, read-out: TRα-LBD IC20
[9] = […] nM TRβ-LBD, 50 nM F-T3, pH 7.5, 25°C, linear interpolation, read-out: TRβ-LBD IC20
[10] = […] nM TTR, 50 nM F-T4, pH 7.5, 25°C, linear interpolation, read-out: TTR IC50 (converted)
[11] = co-exposed with 10 nM T3, mass concentration

## C=CCOc1c(Br)cc(C(C)(C)c2cc(Br)c(OCC=C)c(Br)c2)cc1Br [TBBPA-BAE, TBBPA-bis(allyl ether)]
[1]; co-exposed with 10 nM T3
  Inhibition of T3-induced GH3 cell proliferation effect: ~60%

## CC(C)(c1cc(Br)c(O)c(Br)c1)c1cc(Br)c(O)c(Br)c1 [TBBPA, Tetrabromobisphenol A, reference compound]
[2]
  Binding to TBG: did not bind
[1]; co-exposed with 10 nM T3
  LOEC for enhancing T3-induced GH3 cell proliferation: 2.5 µM
[1]; co-exposed with 10 nM T3, 96 h
  Enhancement of T3-induced GH3 cell proliferation effect: 20%
[3]; [7]
  TRα-LBD RBP: 1.00
[3]; [8]
  IC20: 1500 nM
[4]; [7]
  TRβ-LBD RBP: 1.00
[4]; [9]
  IC20: 5000 nM
[5]; individual exposure 0.3-10 μM, relative to 0.1% DMSO control
  Highest activity of GH3 proliferation induction: 137%
[5]
  LOEC for GH3 cell proliferation: 2.5 µM

## C=CCOc1c(Br)cc(C(C)(C)c2cc(Br)c(O)c(Br)c2)cc1Br [TBBPA-MAE, TBBPA-mono(allyl ether)]
[3]; [7]
  TRα-LBD RBP: 0.25
[3]; [8]
  IC20: 6000 nM
[3]; mass concentration given beside the μM value, read-out: TRα-LBD IC20
  IC20: 3.4 mg/L
[4]; [7]
  TRβ-LBD RBP: 1.25
[4]; [9]
  IC20: 4000 nM
[4]; mass concentration given beside the μM value, read-out: TRβ-LBD IC20
  IC20: 2.3 mg/L
[6]
  TTR RBP (relative binding potency): 2.00
[6]; [10]
  IC50: 100 nM
[6]; compared with T4
  TTR-binding potency, fold higher than T4: 2 fold
[6]; compared with TBBPA
  TTR-binding potency, fold greater than TBBPA: 2 fold
[6]; mass concentration given beside the μM value, read-out: TTR IC50 (converted)
  IC50: 97.6 nM

## CC(C)(c1cc(Br)c(O)c(Br)c1)c1cc(Br)c(OCC(Br)CBr)c(Br)c1 (centres unmarked) [TBBPA-MDBPE, TBBPA-mono(2,3-dibromopropyl ether)]
[1]; co-exposed with 10 nM T3
  LOEC for enhancing T3-induced GH3 cell proliferation: 0.3 µM
[1]; [11]
  LOEC for enhancing T3-induced GH3 cell proliferation: 220 µg/L
[3]; [7]
  TRα-LBD RBP: 0.03
[3]; pH 7.5, read-out: TRα-LBD IC20
  IC20: 50000 nM
[3]; read-out: TRα-LBD IC20
  IC20: 36.8 mg/L
[4]; [7]
  TRβ-LBD RBP: 0.25
[4]; pH 7.5, read-out: TRβ-LBD IC20
  IC20: 20000 nM
[4]; read-out: TRβ-LBD IC20
  IC20: 14.7 mg/L
[5]
  LOEC for GH3 cell proliferation: 0.3 µM
[5]; mass concentration
  LOEC for GH3 cell proliferation: 220 µg/L
[6]
  TTR RBP (relative binding potency): 0.20
[6]; TTR IC50, […] nM TTR, 50 nM F-T4, pH 7.5, 25°C, linear interpolation
  IC50: 1000 nM
[6]; TTR IC50, mass concentration given beside the μM value
  IC50: 990 nM
[6]; compared with T4
  TTR-binding potency, fold lower than natural ligand T4: ~5 fold

## CC(C)(c1cc(Br)c(OCC2CO2)c(Br)c1)c1cc(Br)c(OCC2CO2)c(Br)c1 (centres unmarked) [TBBPA-BGE, TBBPA-bis(glycidyl ether)]
[1]; co-exposed with 10 nM T3
  Inhibition of T3-induced GH3 cell proliferation effect: approximately 80%
[4]; [7]
  TRβ-LBD RBP: 0.20
[4]; [9]
  IC20: 25000 nM

## CC(C)(c1cc(Br)c(OCC(Br)CBr)c(Br)c1)c1cc(Br)c(OCC(Br)CBr)c(Br)c1 (centres unmarked) [TBBPA-BDBPE, TBBPA-bis(2,3-dibromopropyl ether)]
[1]; co-exposed with 10 nM T3
  Effect on T3-induced GH3 cell proliferation: no effect

## CC(C)(c1cc(Br)c(O)c(Br)c1)c1cc(Br)c(OCC2CO2)c(Br)c1 (centres unmarked) [TBBPA-MGE, TBBPA-mono(glycidyl ether)]
[1]; co-exposed with 10 nM T3
  LOEC for enhancing T3-induced GH3 cell proliferation: 1.2 µM
[1]; [11]
  LOEC for enhancing T3-induced GH3 cell proliferation: 700 µg/L
[3]
  TRα-LBD RBP: 0.18
[3]; [8]
  IC20: 8000 nM
[4]
  TRβ-LBD RBP: 0.83
[4]; [9]
  IC20: 6000 nM
[5]
  LOEC for GH3 cell proliferation: 2.5 µM
[5]; mass concentration
  LOEC for GH3 cell proliferation: 1400 µg/L
[6]
  TTR RBP (relative binding potency): 0.40
[6]; [10]
  IC50: 500 nM
[6]; compared with T4
  TTR-binding potency, fold lower than natural ligand T4: approximately 2 fold
